Source: PMC10051310, “Antiproliferative Activity, Multikinase Inhibition, Apoptosis- Inducing Effects and Molecular Docking of Novel Isatin–Purine Hybrids” (Medicina, 2023)

Key:
CDK2 = target: T1, CDK2 (Homo sapiens, UniProt P24941); assay: In vitro CDK2 enzyme assay (ELISA kit); assay type: biochemical
T1 construct: purchased
Experimental: (§1) A human ELISA kit (Enzyme-Linked Immunosorbent Assay) for each of the above-mentioned protein kinase enzymes was used in this assay. […] The mixture was then incubated at room temperature for 2.5 h, after which the wells were washed and 100 μL of the prepared biotin antibody was added and incubated for 1 h at room temperature. After another washing step, 100 μL of streptavidin solution was added and incubated for 45 min at room temperature. The wells were then washed for a third time and 100 μL of TMB Substrate reagent was added and incubated for 30 min at room temperature. Finally, 50 μL of the stop solution was added, and the absorbance was read immediately at 450 nm. A standard curve was plotted showing concentration on the X-axis and absorbance on the Y-axis.

EGFR = target: T2, EGFR (Homo sapiens, UniProt P00533); assay: In vitro EGFR enzyme assay (ELISA kit); assay type: biochemical
T2 construct: purchased
Experimental: as §1

Her2 = target: T3, Her2 (Homo sapiens, UniProt P04626); assay: In vitro Her2 enzyme assay (ELISA kit); assay type: biochemical
T3 construct: purchased
Experimental: as §1

VEGFR2 = target: T4, VEGFR2 (Homo sapiens, UniProt P35968); assay: In vitro VEGFR-2 enzyme assay (ELISA kit); assay type: biochemical
T4 construct: purchased
Experimental: as §1

HepG2 cells [1] = assay: Flow cytometry cell cycle analysis (propidium iodide); assay type: cell-based, human; conditions: HepG2, 9.61 μM, 24 h
Experimental: In addition, the cell cycle progression assay as described by Wang et al. was used to investigate the effect of compound 15 in HepG2 cells. The biological effect of compound 15 was measured by treating HepG2 cells with 9.61 μM of the compound for 24 h. The compound’s effect on cell cycle distribution was analyzed by comparing with untreated control cells (Table 3, Figure 6).
Flow cytometry analysis was carried out using an ab139418 Propidium Iodide flow cytometry kit/BD to detect the effect of the synthesized compound 15 on cell cycle distribution. First, HepG2 cell were seeded in 6-well plates at a density of 2 × 10^5/well and incubated for 24 h. HepG2 cells were then treated with 9.61 µM of compound 15 for 24 h. The treated cells were then fixed in 70% ethanol for 12 h at 4 °C, rinsed with cold PBS, incubated with 100 μL RNase A for 0.5 h at 37 °C, and stained with Propidium Iodide (400 μL) in the dark at RT for an extra 0.5 h. The stained cells were determined utilizing Epics XLMCL™ flow cytometer equipment (Beckman Coulter, Apeldoorn, Netherlands), and the results were collected and analyzed using Flowing software (version 2.5.1, Turku Centre for Biotechnology, Turku, Finland).

HepG2 cells [2] = assay: Annexin V/propidium iodide apoptosis flow cytometry; assay type: cell-based, human; conditions: HepG2, 9.61 μM, 24 h
Experimental: On the other hand, an Annexin V/propidium iodide (PI) double staining assay was conducted to identify the mode of cell death promoted by compound 15 (9.61 μM) following 24 h incubation with HepG2 cells.
Flow cytometry cell apoptosis analysis was conducted to examine the apoptotic effect of the synthesized compounds using the Annexin V-FITC cell apoptosis detection kit (Biovision, K101-100). First, HepG2 cells in a density of 2 × 10^5 were seeded in 6-well plates and incubated for 24 h. The cells were then treated with 9.61 µM compound 15 for 24 h. The treated cells were then detached with trypsin (5 min, 37 °C), collected by centrifugation (5 min, 300× g), washed twice with PBS, and resuspended in 0.1 mL of a 1X binding buffer. After that, the cells were double-stained with 5 μL Annexin V-FITC and 5 μL PI in the dark at room temperature for 15 min. The stained cells were evaluated using an Epics XL-MCL™ Flow Cytometer (Beckman Coulter, Apeldoorn, Netherlands) with an excitation wavelength of 488 nm and an emission wavelength of 530 nm, and the data were interpreted using the Flowing software (version 2.5.1, Turku Centre for Biotechnology, Turku, Finland).

BAX = BAX protein level ELISA in HepG2 cells; assay type: cell-based, human; conditions: HepG2, 9.61 μM, 24 h
Experimental: (§2) In these assays, compound 15 was used at its cytotoxic concentration (9.61 μM) and incubated with HepG2 cells for 24 h.
(§3) HepG2 cells were seeded in 96-well plates in triplicate and incubated for 24 h. The incubated cells were then treated with compound 15 at different concentrations. Cells treated with 0.1% DMSO (V/V) served as control. After 24 h incubation, caspase 3 and 9, BAX and Bcl-2 levels were determined using ELISA assay kits KHO1091 (Invitrogen^TM, Grand Island, NY, USA), EIA-4860 (DRU International INC., Mountainside, NJ, USA), EIA-4487 (DRU International INC., Mountainside, NJ, USA) and 99-0042 (Invitrogen^TM, Grand Island, NY, USA), respectively, according to the manufacturers’ procedures.

Bcl-2 = Bcl-2 protein level ELISA in HepG2 cells; assay type: cell-based, human; conditions: HepG2, 9.61 μM, 24 h
Experimental: as §2, §3

Caspase 3 = Caspase 3 protein level ELISA in HepG2 cells; assay type: cell-based, human; conditions: HepG2, 9.61 μM, 24 h
Experimental: as §2, §3

Caspase 9 = Caspase 9 protein level ELISA in HepG2 cells; assay type: cell-based, human; conditions: HepG2, 9.61 μM, 24 h
Experimental: as §2, §3

HeLa = assay: MTT cytotoxicity assay, HeLa; conditions: Homo sapiens, 24 h, read-out: In Vitro Cytotoxicity IC50 HeLa
Experimental: (§4) Sunitinib, a well-known multi-kinase inhibitor, was used as a reference compound.
(§5) After incubation for 48 h, the cells were treated with different concentrations of the synthesized hybrid compounds for 24 h. After the addition of 20 μL MTT (5 mg/mL), the plates were incubated for 4 h and then 100 μL Dimethyl sulfoxide (DMSO) was added to each well to dissolve the insoluble purple formazan formed. […] The relative cell viability percentage was calculated as (A570 of treated samples/A570 of untreated sample) × 100.

HepG2 = assay: MTT cytotoxicity assay, HepG2; conditions: Homo sapiens, HepG2, 24 h, read-out: In Vitro Cytotoxicity IC50 HepG2
Experimental: as §4, §5

MCF-7 = assay: MTT cytotoxicity assay, MCF-7; conditions: Homo sapiens, MCF7, 24 h, read-out: In Vitro Cytotoxicity IC50 MCF-7
Experimental: as §4, §5

MDA-MB-231 = assay: MTT cytotoxicity assay, MDA-MB-231; conditions: Homo sapiens, MDA-MB-231, 24 h, read-out: In Vitro Cytotoxicity IC50 MDA-MB-231
Experimental: as §4, §5

[3] = test system: HepG2, MCF-7, MDA-MB-231 and HeLa cell lines; assay: MTT cytotoxicity assay, summary over all four cell lines; conditions: Homo sapiens, read-out: IC50 against all tested cell lines
Experimental: as §4, §5

T3 sequence (P04626 23-1255): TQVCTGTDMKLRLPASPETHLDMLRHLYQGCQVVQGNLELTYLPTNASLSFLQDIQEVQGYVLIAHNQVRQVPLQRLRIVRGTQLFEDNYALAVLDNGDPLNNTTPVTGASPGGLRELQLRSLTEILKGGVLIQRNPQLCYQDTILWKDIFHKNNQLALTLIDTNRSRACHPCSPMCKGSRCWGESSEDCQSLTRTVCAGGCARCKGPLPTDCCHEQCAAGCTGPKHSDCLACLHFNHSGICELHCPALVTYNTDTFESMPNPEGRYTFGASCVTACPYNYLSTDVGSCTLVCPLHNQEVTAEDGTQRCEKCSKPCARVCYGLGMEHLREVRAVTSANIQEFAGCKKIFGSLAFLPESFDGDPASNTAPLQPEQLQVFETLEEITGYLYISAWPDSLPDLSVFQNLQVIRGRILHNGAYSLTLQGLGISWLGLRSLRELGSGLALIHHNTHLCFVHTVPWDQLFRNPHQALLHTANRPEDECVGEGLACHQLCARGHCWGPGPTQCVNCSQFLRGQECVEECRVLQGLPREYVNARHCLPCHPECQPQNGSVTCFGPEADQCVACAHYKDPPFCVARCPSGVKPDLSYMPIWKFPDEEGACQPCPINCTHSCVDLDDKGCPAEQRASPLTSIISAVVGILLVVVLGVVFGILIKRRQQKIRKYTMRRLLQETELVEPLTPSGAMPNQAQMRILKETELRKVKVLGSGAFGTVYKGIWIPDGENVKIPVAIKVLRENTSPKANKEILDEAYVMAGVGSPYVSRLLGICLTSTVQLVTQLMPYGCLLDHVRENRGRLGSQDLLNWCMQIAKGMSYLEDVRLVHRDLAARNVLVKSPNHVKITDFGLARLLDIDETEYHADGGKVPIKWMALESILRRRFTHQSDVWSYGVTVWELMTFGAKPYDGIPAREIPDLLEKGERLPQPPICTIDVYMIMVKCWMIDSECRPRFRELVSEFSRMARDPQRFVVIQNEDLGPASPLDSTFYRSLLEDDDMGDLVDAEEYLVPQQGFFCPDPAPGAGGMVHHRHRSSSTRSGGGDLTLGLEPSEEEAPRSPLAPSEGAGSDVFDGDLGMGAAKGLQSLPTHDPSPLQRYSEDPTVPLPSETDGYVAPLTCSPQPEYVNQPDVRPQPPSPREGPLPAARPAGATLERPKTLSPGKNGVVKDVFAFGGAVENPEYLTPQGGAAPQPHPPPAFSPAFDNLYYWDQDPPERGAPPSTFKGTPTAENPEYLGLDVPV
T4 sequence (P35968 20-1356): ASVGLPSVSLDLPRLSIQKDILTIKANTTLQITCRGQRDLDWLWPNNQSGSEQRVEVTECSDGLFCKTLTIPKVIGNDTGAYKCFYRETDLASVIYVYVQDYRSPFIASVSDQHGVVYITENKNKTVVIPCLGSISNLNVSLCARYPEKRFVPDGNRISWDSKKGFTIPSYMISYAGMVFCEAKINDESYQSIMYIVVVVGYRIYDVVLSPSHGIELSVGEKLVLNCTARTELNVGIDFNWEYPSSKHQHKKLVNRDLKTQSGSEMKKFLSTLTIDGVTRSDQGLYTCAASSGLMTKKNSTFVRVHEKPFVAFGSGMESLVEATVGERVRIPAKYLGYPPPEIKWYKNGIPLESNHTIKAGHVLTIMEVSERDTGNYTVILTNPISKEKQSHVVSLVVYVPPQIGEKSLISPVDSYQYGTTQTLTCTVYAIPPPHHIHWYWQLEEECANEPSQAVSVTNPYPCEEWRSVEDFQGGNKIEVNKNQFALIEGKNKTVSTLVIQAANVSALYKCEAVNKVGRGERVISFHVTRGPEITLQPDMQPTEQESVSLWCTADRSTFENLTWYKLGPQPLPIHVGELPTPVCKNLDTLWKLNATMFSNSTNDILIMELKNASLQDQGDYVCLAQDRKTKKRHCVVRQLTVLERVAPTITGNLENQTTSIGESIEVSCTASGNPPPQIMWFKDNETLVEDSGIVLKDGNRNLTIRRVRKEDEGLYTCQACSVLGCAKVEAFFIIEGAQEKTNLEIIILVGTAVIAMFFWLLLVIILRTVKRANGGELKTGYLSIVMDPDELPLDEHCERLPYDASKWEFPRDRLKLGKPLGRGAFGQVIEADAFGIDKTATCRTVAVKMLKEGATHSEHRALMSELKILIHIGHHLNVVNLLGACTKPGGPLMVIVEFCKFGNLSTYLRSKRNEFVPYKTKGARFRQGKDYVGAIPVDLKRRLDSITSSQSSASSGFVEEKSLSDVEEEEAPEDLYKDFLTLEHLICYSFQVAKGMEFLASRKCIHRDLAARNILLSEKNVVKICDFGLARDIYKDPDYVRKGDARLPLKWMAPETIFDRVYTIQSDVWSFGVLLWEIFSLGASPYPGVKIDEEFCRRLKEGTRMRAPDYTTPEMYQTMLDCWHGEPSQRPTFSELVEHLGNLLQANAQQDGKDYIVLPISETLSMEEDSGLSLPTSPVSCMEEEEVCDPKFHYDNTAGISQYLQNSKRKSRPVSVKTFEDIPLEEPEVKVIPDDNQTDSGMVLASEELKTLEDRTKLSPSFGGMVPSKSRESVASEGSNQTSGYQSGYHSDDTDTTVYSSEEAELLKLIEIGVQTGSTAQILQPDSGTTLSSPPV
T2 sequence (P00533 25-1210): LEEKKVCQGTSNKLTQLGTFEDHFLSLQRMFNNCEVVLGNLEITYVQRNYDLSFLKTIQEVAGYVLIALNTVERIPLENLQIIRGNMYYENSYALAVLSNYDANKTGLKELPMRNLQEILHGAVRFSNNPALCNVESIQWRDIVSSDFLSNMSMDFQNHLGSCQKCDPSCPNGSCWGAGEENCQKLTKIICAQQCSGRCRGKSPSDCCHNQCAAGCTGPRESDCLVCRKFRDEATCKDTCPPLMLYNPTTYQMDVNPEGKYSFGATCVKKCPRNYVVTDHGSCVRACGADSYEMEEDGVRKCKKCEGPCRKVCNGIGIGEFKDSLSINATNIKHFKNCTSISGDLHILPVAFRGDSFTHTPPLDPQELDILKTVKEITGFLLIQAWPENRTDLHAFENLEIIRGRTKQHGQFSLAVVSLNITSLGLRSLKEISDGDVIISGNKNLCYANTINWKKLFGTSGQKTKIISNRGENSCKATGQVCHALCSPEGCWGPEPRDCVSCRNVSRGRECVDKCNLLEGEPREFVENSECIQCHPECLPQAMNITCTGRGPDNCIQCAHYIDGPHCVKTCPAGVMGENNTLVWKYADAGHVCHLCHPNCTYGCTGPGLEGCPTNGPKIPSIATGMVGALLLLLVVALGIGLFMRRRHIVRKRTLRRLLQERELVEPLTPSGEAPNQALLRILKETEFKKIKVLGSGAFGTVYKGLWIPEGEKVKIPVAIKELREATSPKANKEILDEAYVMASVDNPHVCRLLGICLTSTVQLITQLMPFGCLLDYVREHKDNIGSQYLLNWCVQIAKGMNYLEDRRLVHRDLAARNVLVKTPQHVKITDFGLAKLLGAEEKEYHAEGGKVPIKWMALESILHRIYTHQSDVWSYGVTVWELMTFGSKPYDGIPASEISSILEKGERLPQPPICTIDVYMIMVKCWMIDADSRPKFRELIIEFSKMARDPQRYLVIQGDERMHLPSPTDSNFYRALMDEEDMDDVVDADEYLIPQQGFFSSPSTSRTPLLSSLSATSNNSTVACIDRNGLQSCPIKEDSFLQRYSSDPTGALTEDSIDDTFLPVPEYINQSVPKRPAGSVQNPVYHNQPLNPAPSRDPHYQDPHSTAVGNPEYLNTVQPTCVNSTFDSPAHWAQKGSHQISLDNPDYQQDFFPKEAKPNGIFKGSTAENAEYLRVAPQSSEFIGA

COc1ccc2c(c1)/C(=N\Nc1ncnc3[nH]cnc13)C(=O)N2 [Compound 15, (E)-3-(2-(9H-purin-6-yl)hydrazineylidene)-5-methoxyindolin-2-one] showed an IC50 (CDK2) of 534 nM, an IC50 (EGFR) of 143 nM and an IC50 (Her2) of 150 nM. The IC50 (VEGFR2) was 192 nM, the “accumulation at pre-G1 compared to control cells” value (HepG2 cells [1]) was 10 fold and the “Cell Cycle Distribution (%) % Pre-G1” value (HepG2 cells [1]; control 2.02) was 21.47%. The “Cell Cycle Distribution (%) % G2/M” value (HepG2 cells [1]; control 17.45) was 6.38%, the “Cell Cycle Distribution (%) % S” value (HepG2 cells [1]; control 38.16) was 42.44% and the “Cell Cycle Distribution (%) % G0–G1” value (HepG2 cells [1]; control 44.39) was 51.18%. For the same compound, the “Apoptosis: Late” value (HepG2 cells [2]; control 0.19%) was 12.58%, the “Apoptosis: Early” value (HepG2 cells [2]; control 0.38%) was 1.86% and the “Apoptosis: Necrosis” value (HepG2 cells [2]; control 1.45%) was 7.03%. The viability at 9.61 µM (HepG2 cells [2]; Homo sapiens, control 97.98%, read-out: Apoptosis: Viable) was 78.5%, the “BAX Expression” value (BAX; control 83.88 ± 23) was 279.1 ± 8.15 pg/mL and the “BAX Fold” value (BAX; relative to control = 1) was 3.38 fold. The “Bcl-2 Expression” value (Bcl-2; control 10.67 ± 0.83) was 4.593 ± 0.22 pg/mL, the “Bcl-2 protein level decrease” value (Bcl-2; fold decrease versus control) was 2.30 fold and the “Bcl-2 Fold” value (Bcl-2; relative to control = 1) was 0.43 fold. The “Caspase 3 Expression” value (Caspase 3; control 93.23 ± 15.5) was 368.4 ± 20.7 pg/mL, the “Caspase 3 Fold” value (Caspase 3; relative to control = 1) was 3.95 fold and the “Caspase 9 Expression” value (Caspase 9; control 4.52 ± 1.27) was 14.07 ± 0.58 pg/mL. For the same compound, the “Caspase 9 Fold” value (Caspase 9; relative to control = 1) was 3.11 fold, the IC50 (HeLa) was 8.93 ± 0.8 µM and the IC50 (HepG2) was 9.61 ± 0.8 µM. For the same compound, the IC50 (MCF-7) was 10.8 ± 0.9 µM, the IC50 (MDA-MB-231) was 14.9 ± 1.2 µM and the IC50 [3] was 8.93 to 14.9 µM.
